Results from patent US6469028B1, “Synthesis and use of retinoid compounds having negative hormone and/or anatgonist activities” (Allergan, Inc., priority 1995, dated 2002).
Values belong to the compound of their own block, whether it stands above or below them.

What was measured:
[1] = system: 1,25-dihydroxyvitamin D3-dependent gene expression; test: Example 14: 1,25-dihydroxyvitamin D3 transactivation, MTV-VDRE-Luc in HeLa cells; assay type: cell-based; details: 1,25-dihydroxyvitamin D3 alone
Procedure: Hela cells were transfected using the cationic liposome-mediated transfection procedure described by Feigner et al. in Proc. Natl. Acad. Sci. USA 84:7413 (1987). 5×10^4 cells were plated in 12-well multiwell plates and grown in DMEM supplemented with 10% FBS. Cells were cotransfected in serum-free medium using 2 μg/well of LIPOFECTAMINE reagent (Life Technologies, Inc.) with 0.7 μg of the reporter plasmid MTV-VDRE-Luc, containing two copies of the 1,25-dihydroxyvitamin D3 response element [NT] ID NO:4) from the mouse osteopontin gene (Ferrara et al. J. Biol. Chem. 269:2971 (1994)) ligated into the reporter plasmid ΔMTV-Luc (Heyman et al. in Cell 68:397 (1992)), and 0.3 μg of the plasmid pGEM3Z (Pharmacia, Inc.) as carrier DNA to bring the final concentration of DNA to 1.0 μg per well. After six hours of transfection, cells were fed with growth medium containing charcoal extracted FBS at a final concentration of 10%. […] Luciferase activity was measured as described above. This experimental system allowed a convenient method of monitoring and quantitating 1,25-dihydroxyvitamin D3-dependent gene expression.

[2] = system: TPA-induced AP-1 activity; test: Example 15: anti-AP-1 activity, Str-AP1-CAT in HeLa cells; assay type: cell-based; details: 1,25-dihydroxyvitamin D3 alone, 10^−12 to 10^−7 M
Procedure: HeLa cells were transfected with 1 μg of Str-AP1-CAT using LIPOFECTAMINE according to the method described by Nagpal et al. in J. Biol. Chem. 270:923 (1995). Transfected cells were treated with AGN 193109 alone (10^−9 to 10^−7 M), 1,25-dihydroxyvitamin D3 alone (10^−12 to 10^−7 M) or 1,25-dihydroxyvitamin D3 (10^−12 to 10^−7 M) in the presence of 10^−8 M AGN 193109.

[3] = Example 4: retinoid-induced hypertriglyceridemia (serum triglycerides); assay type: in vivo, rats; details: group C: AGN 191659 3.7 mg/kg oral alone
Procedure: Male Fischer rats (6-7 weeks old, n=5) were treated by intragastric intubation with corn oil (vehicle), AGN 191659, AGN 193109 or a combination of AGN 191659 and AGN 193109. AGN 191659 and AGN 193109 were given as fine suspensions in corn oil.
Serum was separated from blood by low speed centrifugation. Total serum triglycerides (triglycerides plus glycerol) were measured with a standard spectrophotometric endpoint assay available commercially as a kit and adapted to a 96-well plate format. Serum triglyceride levels are expressed as the mean±SD. Means were compared statistically by one-way analysis of variance followed by Dunnett's test if significant differences were found. Differences were considered significant at P<0.05.

RARγ = biological target: T1, RARγ (Homo sapiens, UniProt P13631); test: [3H]-ATRA displacement assay, baculovirus expressed receptor; assay type: binding; parameters: made in house; host or cells: baculovirus expression system; details: Table 12; relative affinity, competition of 3H-ATRA binding, Cheng-Prussof equation
T1 sequence (P13631 1-454): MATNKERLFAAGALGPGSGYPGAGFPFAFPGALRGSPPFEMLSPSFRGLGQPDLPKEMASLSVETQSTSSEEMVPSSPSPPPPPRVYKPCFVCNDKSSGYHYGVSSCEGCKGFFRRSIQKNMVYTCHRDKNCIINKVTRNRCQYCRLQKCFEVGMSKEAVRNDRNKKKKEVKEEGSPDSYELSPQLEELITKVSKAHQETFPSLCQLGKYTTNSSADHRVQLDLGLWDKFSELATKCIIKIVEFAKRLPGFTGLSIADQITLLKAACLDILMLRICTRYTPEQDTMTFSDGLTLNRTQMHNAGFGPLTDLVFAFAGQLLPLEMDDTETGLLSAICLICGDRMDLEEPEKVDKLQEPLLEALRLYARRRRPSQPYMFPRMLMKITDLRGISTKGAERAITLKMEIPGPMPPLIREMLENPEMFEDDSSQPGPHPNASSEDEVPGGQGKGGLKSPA

RAR-γ-VP-16 = test: Example 12: assay for retinoid negative hormones, CV-1 cells; assay type: cell-based; details: 10^−9 to 10^−6 M, 18 hours, no agonist
hairless mice = test: Example 1: skin irritation by topical agonist, topical antagonist; assay type: in vivo
Procedure: More particularly skin irritation was measured on a semiquantitative scale by the daily subjective evaluation of skin flaking and abrasions. A single number, the topical irritation score, summarizes the skin irritation induced in an animal during the course of an experiment. The topical irritation score is calculated as follows. The topical irritation score is the algebraic sum of a composite flaking score and a composite abrasion score. The composite scores range from 0-9 and 0-8 for flaking and abrasions, respectively, and take into account the maximum severity, the time of onset, and the average severity of the flaking and abrasions observed.
The severity of flaking is scored on a 5-point scale and the severity of abrasions is scored on a 4-point scale, with higher scores reflecting greater severity. The maximum severity component of the composite scores would be the highest daily severity score assigned to a given animal during the course of observation.
For the time of onset component of the composite score, a score ranging from 0 to 4 is assigned as follows:
The average severity component of the composite score is the sum of the daily flaking or abrasion scores divided by the number of observation days.
To calculate the composite flaking and abrasion scores, the average severity and time of onset scores are summed and divided by 2. The result is added to the maximal severity score. The composite flaking and abrasion scores are then summed to give the overall topical irritation score. Each animal receives a topical irritation score, and the values are expressed as the mean±SD of the individual scores of a group of animals. Values are rounded to the nearest integer.
Female hairless mice [Crl:SKH1-hrBR] […] Treatments are applied to the dorsal skin in a total volume of 4 ml/kg (˜0.1 ml). Mice were observed daily and scored for flaking and abrasions up to and including 3 days after the last treatment, i.e., day 8.

SMILES: C=C1/C(=C\C=C2/CCC[C@]3(C)[C@@H]([C@H](C)CCCC(C)(C)O)CC[C@@H]23)C[C@@H](O)C[C@@H]1O [1,25-dihydroxyvitamin D3, reference compound]
concentration required to produce a luciferase expression of approximately 2,000 rlu [1]: 10^−8 M
repression of TPA-stimulated activity [2]: repressed TPA-stimulated activity only in the 10^−8 and 10^−7 M concentration range

SMILES: Cc1ccc(C2=CCSc3ccc(C#Cc4ccc(C(=O)O)cc4)cc32)cc1 [Compound 50, 4-[2-(6-(4-(4-methylphenyl)-(2H)-1-benzothiopyranyl))ethynyl]-benzoic acid]
Kd (RARγ): 30 nM
RAR-γ-VP-16 constitutive activity (negative hormone activity) (RAR-γ-VP-16): dose dependent repression of RAR-γ-VP-16 constitutive activity

SMILES: CC1(C)CC=C(c2ccccc2)c2cc(C#Cc3ccc(C(=O)O)cc3)ccc21 [Compound 60a, 4-[(5,6-dihydro-5,5-dimethyl-8-phenyl-2-naphthalenyl)ethynyl]benzoic acid]
Topical Irritation Score (hairless mice; group C: AGN 192869 0.06 mg/kg/d + AGN 191183 0.025 mg/kg/d topical, molar ratio 2:1): 5 ± 2
Topical Irritation Score (hairless mice; group D: AGN 192869 0.30 mg/kg/d + AGN 191183 0.025 mg/kg/d topical, molar ratio 10:1): 2 ± 1
Topical Irritation Score (hairless mice; group E: AGN 192869 1.5 mg/kg/d + AGN 191183 0.025 mg/kg/d topical, molar ratio 50:1): 1 ± 0
Topical Irritation Score (hairless mice; group F: AGN 192869 1.5 mg/kg/d topical alone): 0 ± 0

The next lines start with results.

Serum Triglycerides [3]: 122.5 ± 27.6 mg/dL
SMILES: C/C(=C\c1ccc(C(=O)O)s1)c1cc2c(cc1C)C(C)(C)CCC2(C)C [AGN 191659, 5-[(E)-2-(5,6,7,8-tetrahydro-3,5,5,8,8-pentamethylnaphthalen-2-yl)propen-1-yl]-2-thiophencarboxylic acid, reference compound]

Kd (RARγ): 52 nM
SMILES: CC1(C)CC=C(c2cccs2)c2cc(C#Cc3ccc(C(=O)O)cc3)ccc21 [Compound 34a, 4-[(5,6-dihydro-5,5-dimethyl-8-(2-thienyl)-2-naphthalenyl)ethynyl]benzoic acid]
RAR-γ-VP-16 constitutive activity (negative hormone activity) (RAR-γ-VP-16): did not repress RAR-γ-VP-16 activity
